Earlier results as cited in patent publication US7074430B2, “Controlled release tramadol tramadol formulation” (Euro-Celtique S.A., priority 1994, dated 2006).

Conditions: value taken for the deconvolution technique

Compound: COc1cccc([C@@]2(O)CCCC[C@H]2CN(C)C)c1 (racemic) [tramadol, (±)-trans-2-[(dimethylamino)methyl]-1-(3-methoxyphenyl) cyclohexanol]
- elimination half life: 7.8 h
